{"source": "patent US6387938B1", "about": "“Benzimidazole derivatives” (Mochida Pharmaceutical Co., Ltd., priority 1996, dated 2002)", "key": {"BALB/c male mice": {"system": "BALB/c male mice", "assay": "Toxicity test in mice, repeated oral dosing", "type": "in vivo"}, "[1]": {"system": "intraperitoneal eosinophilia", "assay": "Action on intraperitoneal eosinophilia model mice", "type": "in vivo, BALB/c male mice", "conditions": "BALB/c mice sensitized with swine roundworm extract; oral once a day, 10 times; dose 10 mg/kg/day", "procedure": "Using five animals per group of BALB/c male mice (about 25 g in body weight), 0.11 mL of physiological saline containing 0.1 mg of swine roundworm extract was administered into the peritoneal cavity of each mouse to sensitize. The same treatment was repeated 7 days after the administration and, 3 days thereafter, each animal was sacrificed by phlebotomy, 3 mL of physiological saline containing 1% dipotassium ethylenediaminetetraacetate (EDTA) was administered by intraperitoneal injection and its abdominal region was massaged for about 30 seconds. […] A portion of the cell suspension was daubed on a slide glass using a spinner to carry out Diff-Quik staining, and then total leukocytes and eosinophils were counted to calculate the ratio of eosinophils in the total leukocytes. The number of total leukocytes in the cell suspension was measured using an automatic blood cell counter. The number of eosinophils in the cell suspension was calculated by multiplying the ratio of eosinophils in the total leukocytes by the number of total leukocytes. […] The dose of each compound to be tested and the intraperitoneal eosinophilia inhibition rate calculated by the following formula are shown in Table 1. […]"}, "[2]": {"system": "IFN-γ production of the spleen cell", "assay": "Action of IFN-γ production enhancement in tumor-bearing mouse", "type": "in vivo", "conditions": "B16F10 tumor-bearing C57BL/6 mouse, oral day 7 to day 21, spleen cells cultivated 24 hours with no stimulation, EIA, N = 7", "procedure": "B16F10 cells cultivated in DMEM (Dulbecco's medium) supplemented with 10% FCS (fetal calf serum) were treated with trypsin, washed with PBS (phosphate buffered saline, pH 7.4), and adjusted in PBS to 1×10^7 cells/ml. The cells were subcutaneously injected in the abdomen of male C57BL/6 mouse (7 week old; body weight, about 23 g) at a dose of 0.1 ml/mouse. The day of tumor inoculation was designated day 0, and the tumor diameter was measured at day 7 with a vernier caliper. The tumor volume was calculated in terms of (minor diameter)^2×(major diameter), and the mice were grouped by using this value and the body weight for the indexes. […] The test compound was orally administered from day 7 to day 21. The solvent used was 0.5% HPMC (Hydroxy propyl methyl cellurose), and the control group was administered only with the solvent. At day 22, the mice were decapitated and the spleens were removed. After weighing the organs, the spleen was homogenized with a glass homogenizer, adjusted to 5×10^6 cells/ml, and cultivated in S-Clone SF-B medium (Sanko Pure Chemicals). The culture supernatant was collected after 24 hours, and […] at −80° C. The supernatant was measured for its IFN-γ concentration (pg/mL) by EIA (Enzyme Immunoassay). The measurement was conducted with an assay kit of ENDOGEN."}, "[3]": {"assay": "Hydrolysis of the ester bond in the rat", "type": "in vivo"}, "SD female rats": {"system": "SD female rats", "assay": "Toxicity test in rats, 14 days oral dosing", "type": "in vivo", "conditions": "0.5% HPMC suspension, 300 mg/kg/day for 14 days", "procedure": "SD female rats were orally treated with the compounds of Inventive Examples 54 and 55 suspended in 0.5% aqueous solution of HPMC at a dose of 300 mg/kg/day for 14 days."}, "[4]": {"conditions": "5% acacia suspension, 100 mg/kg/day for 7 days, observed for 3 days after administration"}, "[5]": {"conditions": "0.5% HPMC suspension, 100 mg/kg/day for 4 days"}}, "data": [{"smiles": "O=C(O)CC(O)c1cccc2nc(CCc3ccccc3)[nH]c12", "note": "(stereo not drawn)", "values": [{"measurement": "melting point", "value": "103 to 105.3", "unit": "°C"}]}, {"smiles": "O=C(O)CC(=O)c1cccc2nc(CCc3ccccc3)[nH]c12", "note": "[compound 1]", "values": [{"measurement": "Abnormality in body weight and general symptoms", "setting": "BALB/c male mice; [4]", "value": "no abnormality"}, {"measurement": "Mortality", "setting": "BALB/c male mice; [4]", "value": "no mortal case"}]}, {"smiles": "COC(=O)CC(=O)c1cccc2nc(CCc3ccccc3)[nH]c12", "note": "[compound 2]", "values": [{"measurement": "Abnormality in body weight and general symptoms", "setting": "BALB/c male mice; [4]", "value": "no abnormality"}, {"measurement": "Mortality", "setting": "BALB/c male mice; [4]", "value": "no mortal case"}]}, {"smiles": "CCOC(=O)CC(=O)c1cccc2nc(CCc3ccccc3)[nH]c12", "note": "[compound 3]", "values": [{"measurement": "Intraperitoneal eosinophilia inhibition rate (%)", "setting": "[1]", "value": 67, "unit": "%"}]}, {"smiles": "COC(=O)CC(O)c1cccc2nc(CCc3ccccc3)[nH]c12", "note": "(stereo not drawn) [compound 5]", "values": [{"measurement": "Abnormality in body weight and general symptoms", "setting": "BALB/c male mice; [4]", "value": "no abnormality"}, {"measurement": "Mortality", "setting": "BALB/c male mice; [4]", "value": "no mortal case"}]}, {"smiles": "CCOC(=O)CC(O)c1cccc2nc(CCc3ccccc3)[nH]c12", "note": "(stereo not drawn) [compound 6]", "values": [{"measurement": "IFN-γ concentration", "setting": "[2]; dose 10 mg/kg/day", "value": 125, "unit": "pg/mL"}, {"measurement": "IFN-γ concentration", "setting": "[2]; dose 30 mg/kg/day", "value": 194, "unit": "pg/mL"}, {"measurement": "IFN-γ concentration", "setting": "[2]; dose 100 mg/kg/day", "value": 263, "unit": "pg/mL"}, {"measurement": "Abnormality in body weight and general symptoms", "setting": "BALB/c male mice; [5]", "value": "no abnormality"}, {"measurement": "Mortality", "setting": "BALB/c male mice; [5]", "value": "No mortal case"}]}, {"smiles": "O=C(O)CC(O)c1cccc2nc(CCc3ccccc3)[nH]c12", "note": "(stereo not drawn) [compound 7]", "values": [{"measurement": "Abnormality in body weight and general symptoms", "setting": "BALB/c male mice; [5]", "value": "no abnormality"}, {"measurement": "Mortality", "setting": "BALB/c male mice; [5]", "value": "No mortal case"}, {"measurement": "Abnormality in body weight and general symptoms", "setting": "BALB/c male mice; [4]", "value": "no abnormality"}, {"measurement": "Mortality", "setting": "BALB/c male mice; [4]", "value": "no mortal case"}]}, {"smiles": "CCOC(=O)CC(=O)c1cccc2c1nc(CCc1ccccc1)n2C", "note": "[compound 10]", "values": [{"measurement": "Abnormality in body weight and general symptoms", "setting": "BALB/c male mice; [4]", "value": "no abnormality"}, {"measurement": "Mortality", "setting": "BALB/c male mice; [4]", "value": "no mortal case"}]}, {"smiles": "CCOC(=O)CC(O)c1cccc2nc(CCc3ccccc3)[nH]c12", "note": "(stereo not drawn) [compound 54]", "values": [{"measurement": "Ester bond hydrolysis to generate carboxyl group", "setting": "[3]", "value": "hydrolyzed"}, {"measurement": "Relative liver weight", "setting": "SD female rats", "value": "significant increase"}, {"measurement": "Abnormality in body weight and general symptoms", "setting": "BALB/c male mice; [5]", "value": "no abnormality"}, {"measurement": "Mortality", "setting": "BALB/c male mice; [5]", "value": "No mortal case"}]}, {"smiles": "CCOC(=O)CC(O)c1cccc2nc(CCc3ccccc3)[nH]c12", "note": "(stereo not drawn) [compound 55]", "values": [{"measurement": "Ester bond hydrolysis to generate carboxyl group", "setting": "[3]", "value": "hydrolyzed"}, {"measurement": "Relative liver weight", "setting": "SD female rats", "value": "no such increase"}, {"measurement": "Abnormality in body weight and general symptoms", "setting": "BALB/c male mice; [5]", "value": "no abnormality"}, {"measurement": "Mortality", "setting": "BALB/c male mice; [5]", "value": "No mortal case"}]}]}
